Assay results published in patent US7947733B2, “Phosphorylated pyrone analogs and methods” (Limerick BioPharma, priority 2007, dated 2011).
Values joined by “and” are separate entries in the source; they are usually repeats but may differ in a detail not shown here. Equal entries are not always repeated.

Tests used:
[1] = in vivo; cited from earlier work
kidney of rats = assay: Renal pathology in rats co-administered with quercetin-3′-O-phosphate and tacrolimus; type: in vivo, rat; settings: tacrolimus (Prograf) 0.5 mg/kg and inert vehicle, 25 days
Procedure: Tissue is removed from the kidney of rats treated with tacrolimus (Prograf®) at 0.5 mg/kg and inert vehicle, and from rats treated with tacrolimus (Prograf®) at 0.5 mg/kg and quercetin-3′-O-phosphate (Q-Phosphate) at 11 mg/kg, 28 mg/kg, and at 114 mg/kg for 25 days. […] The tissue from rats treated with Q-Phosphate and tacrolimus show no vacuoles.

rats = assay: Blood glucose levels in rats co-administered with quercetin-3′-O-phosphate and tacrolimus; type: in vivo, rat; settings: for Blood glucose, Mean change from all vehicle control / Blood glucose, Mean change from Day 1: Prograf 0.5 mg/kg i.p. + Vehicle 1; for Blood glucose, Mean: Prograf 0.5 mg/kg i.p. Day 1 to Day 25 + Vehicle 1, 5 rats; for Blood glucose, individual rats: Prograf 0.5 mg/kg i.p. once daily Day 1 to Day 25 + Vehicle 1 Day 11 to Day 25
Procedure: One set of 5 rats is treated from day 1 to day 25 with inert vehicle 2 intraperitoneally and treated from day 11 to day 25 with inert vehicle 1 intraperitoneally. […] A third set 5 of rats is treated from day 1 to day 25 with tacrolimus (Prograf®) intraperitoneally at 0.5 mg/kg, and treated from day 11 to day 25 intraperitoneally with quercetin-3′-O-phosphate (Q-Phosphate) at 114 mg/kg. The blood glucose level in the rats is measured on days 1, 10, 15, 20, and 25.

## O=c1c(O)c(-c2ccc(O)c(O)c2)oc2cc(O)cc(O)c12 [quercetin aglycone, quercetin]
[1]
  serum half-life: 19 to 25 h

## C=CC[C@@H]1/C=C(\C)C[C@H](C)C[C@H](OC)[C@H]2O[C@@](O)(C(=O)C(=O)N3CCCC[C@H]3C(=O)O[C@H](/C(C)=C/[C@@H]3CC[C@@H](O)[C@H](OC)C3)[C@H](C)[C@@H](O)CC1=O)[C@H](C)C[C@@H]2OC [Prograf ®, tacrolimus, reference compound]
Kidney of rats
  vacuolation of kidney tissue: significant vacuolation
rats; Day 1
  Blood glucose, Mean change from all vehicle control: -0.10 g/L
  Blood glucose, Mean: 1.27 g/L
  Blood glucose, individual rats: 1.16 g/l (2×) and 1.34 g/l and 1.22 g/l and 1.47 g/l
rats; Day 10
  Blood glucose, Mean change from Day 1: +0.22 g/l
  Blood glucose, Mean change from all vehicle control: +0.23 g/l
  Blood glucose, Mean: 1.49 g/L
  Blood glucose, individual rats: 1.30 g/L and 1.39 g/L and 1.40 g/L and 1.09 g/L and 2.25 g/L
rats; Day 15
  Blood glucose, Mean change from Day 1: +1.27 g/l
  Blood glucose, Mean change from all vehicle control: +1.27 g/l
  Blood glucose, Mean: 2.54 g/L
  Blood glucose, individual rats: 3.72 g/L and 1.67 g/L and 2.31 g/L and 1.97 g/L and 3.02 g/L
rats; Day 20
  Blood glucose, Mean change from Day 1: +1.66 g/l
  Blood glucose, Mean change from all vehicle control: +1.81 g/l
  Blood glucose, Mean: 2.93 g/L
  Blood glucose, individual rats: 2.79 g/L and 3.70 g/L and 2.97 g/L and 2.41 g/L and 2.77 g/L
rats; Day 25
  Blood glucose, Mean change from Day 1: +1.28 g/l
  Blood glucose, Mean change from all vehicle control: +1.38 g/l
  Blood glucose, Mean: 2.55 g/L
  Blood glucose, individual rats: 0.97 g/L and 3.16 g/L and 1.69 g/L and 2.98 g/L and 3.96 g/L
